For four compounds, Emax, EC50 and Ki results are on record in US20230265151A1, “GIP/GLP1 CO-AGONIST COMPOUNDS” (priority 2020, published 2023).

SMILES strings stand for the structures. Where two headings read alike, the source gives them in different places.

Assay [1] concerns the target T1, hGIPR (Homo sapiens, UniProt P48546).
T1 construct: expressed in transfected cells
T1 sequence (P48546 22-466): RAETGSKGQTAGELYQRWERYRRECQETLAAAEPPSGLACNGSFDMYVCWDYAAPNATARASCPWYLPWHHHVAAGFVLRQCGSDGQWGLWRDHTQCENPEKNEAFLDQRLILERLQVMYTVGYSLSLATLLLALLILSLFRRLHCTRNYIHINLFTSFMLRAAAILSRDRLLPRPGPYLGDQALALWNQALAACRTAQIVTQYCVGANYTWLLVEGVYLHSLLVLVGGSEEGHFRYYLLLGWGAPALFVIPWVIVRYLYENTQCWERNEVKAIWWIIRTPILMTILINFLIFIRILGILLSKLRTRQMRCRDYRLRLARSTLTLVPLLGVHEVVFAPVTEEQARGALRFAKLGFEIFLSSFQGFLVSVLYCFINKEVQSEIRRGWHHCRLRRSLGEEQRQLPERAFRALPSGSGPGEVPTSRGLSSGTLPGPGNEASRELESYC
The assay can be described thus: Functional cAMP formation (HTRF) in HEK-293 clonal cells expressing hGIPR, 0.1% bovine casein, without or with 1.0% human serum albumin. Format: cell-based. Particulars: for Emax: read-out: hGIPR Emax, % ± SEM; for EC50: read-out: hGIPR EC50, nM (SEM, n). The method, boiled down:
(§1)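 Cells were stimulated with peptide for 30 min at 37° C, then intracellular cAMP was measured by competitive HTRF (665/620 nm ratio) and converted to nM using a cAMP standard curve. Relative EC50 and Emax came from four-parameter logistic fits of percent maximal response against peptide concentration.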
In general terms: Cyclic AMP is a second messenger, typically raised through Gs and lowered through Gi signalling.

The target in assay [2] is hGLP-1R (Homo sapiens, UniProt P43220). As to the kind of experiment: Functional cAMP formation (HTRF) in HEK-293 clonal cells expressing hGLP-1R, 0.1% bovine casein, without or with 1.0% human serum albumin. Set-up: expressed in transfected cells. Format: cell-based. Particulars: for Emax: read-out: hGLP-1R Emax, % ± SEM; for EC50: read-out: hGLP-1R EC50, nM (SEM, n). The method, boiled down:
as §1

Assay [3] has as its target T2, human Gcg receptor (hGcgR) (Homo sapiens, UniProt P47871).
T2 construct: expressed in transfected cells; crude membranes
The assay can be described thus: [125I]-Glucagon binding, SPA with membranes of HEK293 cells expressing hGcgR. Particulars: human GcgR; geometric mean (SEM, n); read-out: Binding Affinity Ki, nM (SEM, n) hGCGR.

In assay [4] the target is T3, hGCGR (Homo sapiens, UniProt P47871).
T3 construct: expressed in transfected cells
T3 sequence (P47871 26-477): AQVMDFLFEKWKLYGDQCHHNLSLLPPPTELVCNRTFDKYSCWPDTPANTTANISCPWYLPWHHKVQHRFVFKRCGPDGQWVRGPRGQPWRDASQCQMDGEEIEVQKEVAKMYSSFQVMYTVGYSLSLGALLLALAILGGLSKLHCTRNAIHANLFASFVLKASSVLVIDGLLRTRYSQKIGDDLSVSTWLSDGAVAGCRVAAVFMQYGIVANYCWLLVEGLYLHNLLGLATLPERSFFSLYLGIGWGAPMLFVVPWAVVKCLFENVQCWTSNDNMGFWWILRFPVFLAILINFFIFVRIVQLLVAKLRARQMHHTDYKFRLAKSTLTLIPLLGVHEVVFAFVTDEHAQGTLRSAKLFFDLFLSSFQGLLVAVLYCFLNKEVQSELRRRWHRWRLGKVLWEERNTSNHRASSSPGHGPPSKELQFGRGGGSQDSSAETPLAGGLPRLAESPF
The assay can be described thus: Functional cAMP formation (HTRF) in HEK-293 clonal cells expressing hGCGR, 0.1% bovine casein, without or with 1.0% human serum albumin. Format: cell-based. Particulars: read-out: hGCGR EC50, nM (SEM, n). The method, boiled down:
as §1

[5] abbreviates: cAMP, 37° C., 0.1% bovine casein (no human serum albumin), geometric mean.
[6] abbreviates: cAMP, 37° C., 0.1% bovine casein and 1.0% human serum albumin, geometric mean (SEM, n).
[7] abbreviates: HEK293, 0.1% bovine casein and 1.0% human serum albumin, 37° C., percent of maximal response to GIP(1-42)NH2.
Where [8] appears, read: HEK293, percent of maximal response to GIP(1-42)NH2, 37° C., 0.1% bovine casein, arithmetic mean.
Setting [9] is: HEK293, 0.1% bovine casein and 1.0% human serum albumin, 37° C., percent of maximal response to GLP-1(7-36)NH2.
Where [10] appears, read: cAMP, incubated at 37° C., 0.1% bovine casein (no human serum albumin), geometric mean.
Setting [11] is: 0.1% bovine casein and 1.0% human serum albumin, 37° C., geometric mean.

T2 sequence (P47871 26-477): as above
hGLP-1R, sequence (P43220 24-463): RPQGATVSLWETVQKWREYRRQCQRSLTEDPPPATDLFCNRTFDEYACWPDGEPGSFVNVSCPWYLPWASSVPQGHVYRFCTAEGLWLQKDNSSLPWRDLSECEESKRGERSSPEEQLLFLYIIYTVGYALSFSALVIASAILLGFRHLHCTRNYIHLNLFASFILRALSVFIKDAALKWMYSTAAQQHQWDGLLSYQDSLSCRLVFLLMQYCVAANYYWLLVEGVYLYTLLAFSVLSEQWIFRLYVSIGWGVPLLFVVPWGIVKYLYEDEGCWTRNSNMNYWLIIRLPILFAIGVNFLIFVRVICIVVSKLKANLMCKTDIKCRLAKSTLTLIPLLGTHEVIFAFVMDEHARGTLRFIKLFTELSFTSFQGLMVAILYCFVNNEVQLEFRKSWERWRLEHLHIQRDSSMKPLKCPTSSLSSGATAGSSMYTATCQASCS

Usually Emax stands for the size of the effect at its maximum, as opposed to the concentration needed. The term EC50 denotes the concentration at which the effect is half-maximal. The term Ki denotes the equilibrium dissociation constant of an inhibitor or competing ligand from its target. As for `CC[C@H](C)[C@H](NC(=O)[C@H](CC(C)C)NC(=O)[C@](C)(Cc1ccc(O)cc1)NC(=O)[C@@H](CCC(=O)O)NC(=O)[C@@H](NC(=O)[C@H](Cc1ccccc1)NC(=O)[C@H](CCC(=O)O)NC(=O)C(C)(C)NC(=O)[C@H](CCC(N)=O)NC(=O)[C@H](C)NC(=O)[C@H](CCCCNC(=O)COCCOCCNC(=O)CC[C@H](NC(=O)CCCCCCCCCCCCC(=O)O)C(=O)O)NC(=O)[C@H](CCCN)NC(=O)[C@H](CC(=O)O)NC(=O)[C@H](CC(C)C)NC(=O)[C@](C)(CC(C)C)NC(=O)[C@@H](NC(=O)C(C)(C)NC(=O)[C@H](Cc1ccncc1)NC(=O)[C@H](CC(=O)O)NC(=O)[C@H](CO)NC(=O)[C@@H](NC(=O)[C@](C)(Cc1ccccc1F)NC(=O)[C@@H](NC(=O)CNC(=O)[C@H](CCC(=O)O)NC(=O)C(C)(C)NC(=O)[C@@H](N)Cc1ccc(O)cc1)[C@@H](C)O)[C@@H](C)O)[C@@H](C)CC)[C@@H](C)CC)C(=O)N[C@@H](CCC(=O)O)C(=O)NCC(=O)NCC(=O)N1CCC[C@H]1C(=O)N[C@@H](CO)C(=O)N[C@@H](CO)C(=O)NCC(=O)N[C@@H](C)C(=O)N1CCC[C@H]1C(=O)N1CCC[C@H]1C(=O)N1CCC[C@H]1C(=O)N[C@@H](CO)C(=O)N[C@@H](CCCCNC(=O)COCCOCCNC(=O)CC[C@H](NC(=O)CCCCCCCCCCCCC(=O)O)C(=O)O)C(N)=O` [Example 338], the Emax in assay [1] (HEK293, cAMP, 37° C., 0.1% bovine casein and 1.0% human serum albumin, percent of maximal response to GIP(1-42)NH2) worked out at 83.9%; in assay [2] (HEK293, cAMP, 37° C., 0.1% bovine casein, percent of maximal response to GLP-1(7-36)NH2, arithmetic mean), 109%. The EC50 in assay [1] (setting [5]) is 0.0157 nM; in assay [1] (setting [6]) it was 1.24 nM; in assay [2] (setting [5]), 0.468 nM; in assay [2] (setting [6]), 36.6 nM; in assay [4] (setting [5]), greater than 10100 nM; in assay [4] (setting [6]) it was greater than 10100 nM. Also, the inhibitory constant (Ki) in assay [3] was greater than 957 nM.
For `CC[C@H](C)[C@H](NC(=O)[C@H](CC(C)C)NC(=O)[C@](C)(Cc1ccc(O)cc1)NC(=O)[C@@H](CCC(=O)O)NC(=O)[C@@H](NC(=O)[C@H](Cc1ccccc1)NC(=O)[C@H](CCC(=O)O)NC(=O)C(C)(C)NC(=O)[C@H](CCC(N)=O)NC(=O)[C@H](C)NC(=O)[C@H](CCCCNC(=O)COCCOCCNC(=O)COCCOCCNC(=O)CC[C@H](NC(=O)CCCCCCCCCCCCC(=O)O)C(=O)O)NC(=O)[C@H](CCCN)NC(=O)[C@H](CC(=O)O)NC(=O)[C@H](CC(C)C)NC(=O)[C@](C)(CC(C)C)NC(=O)[C@@H](NC(=O)[C@H](CO)NC(=O)[C@](C)(Cc1ccccc1)NC(=O)[C@H](CC(=O)O)NC(=O)[C@H](CO)NC(=O)[C@@H](NC(=O)[C@](C)(Cc1ccccc1)NC(=O)[C@@H](NC(=O)CNC(=O)[C@H](CCC(=O)O)NC(=O)C(C)(C)NC(=O)[C@@H](N)Cc1ccc(O)cc1)[C@@H](C)O)[C@@H](C)O)[C@@H](C)CC)[C@@H](C)CC)C(=O)N[C@@H](CCC(=O)O)C(=O)NCC(=O)NCC(=O)N[C@@H](CCCCNC(=O)COCCOCCNC(=O)COCCOCCNC(=O)CC[C@H](NC(=O)CCCCCCCCCCCCC(=O)O)C(=O)O)C(=O)N[C@@H](CO)C(=O)N[C@@H](CO)C(=O)NCC(=O)N[C@@H](C)C(=O)N1CCC[C@H]1C(=O)N1CCC[C@H]1C(=O)N1CCC[C@H]1C(=O)N[C@@H](CO)C(N)=O` [Example 45], the maximal response (Emax) in assay [1] (setting [7]) came out at 72.5%; in assay [1] (setting [8]) it was 91.3 ± 1.04%; in assay [2] (setting [9]), 109%; in assay [2] (HEK293, percent of maximal response to GLP-1(7-36)NH2, 37° C., 0.1% bovine casein, arithmetic mean), 85.7 ± 8.37%. Further, the 50% effective concentration (EC50) in assay [2] (setting [10]) is 9.18 nM; in assay [4] (setting [11]) it was greater than 9950 nM; in assay [4] (setting [10]), greater than 9950 nM. In assay [3], the Ki is greater than 966 nM.
For `CC[C@H](C)[C@H](NC(=O)[C@H](CC(C)C)NC(=O)[C@](C)(Cc1ccc(O)cc1)NC(=O)[C@@H](CCC(=O)O)NC(=O)[C@@H](NC(=O)[C@H](Cc1ccccc1)NC(=O)[C@H](CCC(=O)O)NC(=O)C(C)(C)NC(=O)[C@H](CCC(N)=O)NC(=O)[C@H](C)NC(=O)[C@H](CCCCNC(=O)COCCOCCNC(=O)COCCOCCNC(=O)CC[C@H](NC(=O)CCCCCCCCCCCCC(=O)O)C(=O)O)NC(=O)[C@H](CCCN)NC(=O)[C@H](CC(=O)O)NC(=O)[C@H](CC(C)C)NC(=O)[C@](C)(CC(C)C)NC(=O)[C@@H](NC(=O)[C@H](CO)NC(=O)[C@H](Cc1ccncc1)NC(=O)[C@H](CC(=O)O)NC(=O)[C@H](CO)NC(=O)[C@@H](NC(=O)[C@](C)(Cc1ccccc1F)NC(=O)[C@@H](NC(=O)CNC(=O)[C@H](CCC(=O)O)NC(=O)C(C)(C)NC(=O)[C@@H](N)Cc1ccc(O)cc1)[C@@H](C)O)[C@@H](C)O)[C@@H](C)CC)[C@@H](C)CC)C(=O)N[C@@H](CCC(=O)O)C(=O)NCC(=O)NCC(=O)N1CCC[C@H]1C(=O)N[C@@H](CO)C(=O)N[C@@H](CO)C(=O)NCC(=O)N[C@@H](C)C(=O)N1CCC[C@H]1C(=O)N1CCC[C@H]1C(=O)N1CCC[C@H]1C(=O)N[C@@H](CO)C(=O)N[C@@H](CCCCNC(=O)COCCOCCNC(=O)COCCOCCNC(=O)CC[C@H](NC(=O)CCCCCCCCCCCCC(=O)O)C(=O)O)C(N)=O` [Example 19], the EC50 is 0.438 nM in assay [1] (setting [11]); 0.0158 nM in assay [1] (setting [10]); 24.4 nM in assay [2] (setting [11]); 1.34 nM in assay [2] (setting [10]); greater than 9950 nM in assay [4] (setting [11]); greater than 9950 nM in assay [4] (setting [10]). In addition, the values for the Emax in assay [1] (setting [7]) and in assay [1] (setting [8]) were 89.7 ± 2.13% and 96.6 ± 2.7%, respectively. Besides, the Ki in assay [3] was greater than 966 nM.
For the compound `CC[C@H](C)[C@H](NC(=O)[C@H](CC(C)C)NC(=O)[C@](C)(Cc1ccc(O)cc1)NC(=O)[C@@H](CCC(=O)O)NC(=O)[C@@H](NC(=O)[C@H](Cc1ccccc1)NC(=O)[C@H](CCC(=O)O)NC(=O)C(C)(C)NC(=O)[C@H](CCC(N)=O)NC(=O)[C@H](C)NC(=O)[C@H](CCCCNC(=O)COCCOCCNC(=O)CC[C@H](NC(=O)COCCOCCNC(=O)CCCCCCCCCCCCC(=O)O)C(=O)O)NC(=O)[C@H](CCCN)NC(=O)[C@H](CC(=O)O)NC(=O)[C@H](CC(C)C)NC(=O)[C@](C)(CC(C)C)NC(=O)[C@@H](NC(=O)[C@H](CO)NC(=O)[C@H](Cc1ccncc1)NC(=O)[C@H](CC(=O)O)NC(=O)[C@H](CO)NC(=O)[C@@H](NC(=O)[C@](C)(Cc1ccccc1F)NC(=O)[C@@H](NC(=O)CNC(=O)[C@H](CCC(=O)O)NC(=O)C(C)(C)NC(=O)[C@@H](N)Cc1ccc(O)cc1)[C@@H](C)O)[C@@H](C)O)[C@@H](C)CC)[C@@H](C)CC)C(=O)N[C@@H](CCC(=O)O)C(=O)NCC(=O)NCC(=O)N[C@@H](CCCCNC(=O)COCCOCCNC(=O)CC[C@H](NC(=O)COCCOCCNC(=O)CCCCCCCCCCCCC(=O)O)C(=O)O)C(=O)N[C@@H](CO)C(=O)N[C@@H](CO)C(=O)NCC(=O)N[C@@H](C)C(=O)N1CCC[C@H]1C(=O)N1CCC[C@H]1C(=O)N1CCC[C@H]1C(=O)N[C@@H](CO)C(N)=O` [Example 43], the 50% effective concentration (EC50) in assay [1] (setting [11]) is 0.375 nM; in assay [1] (setting [10]), 0.0123 nM; in assay [2] (setting [11]) it was 35.6 nM; in assay [4] (setting [11]), greater than 9950 nM; in assay [4] (setting [10]), greater than 9950 nM. The maximal response (Emax) in assay [2] (setting [9]) is 98.7%. Also, the Ki in assay [3] is greater than 957 nM.
